Assay results as given in patent US20180177749A1, “USE OF CYP EXPRESSION TO DIRECT THERAPEUTIC INTERVENTION IN CANCER” (REGENTS OF THE UNIVERSITY OF MINNESOTA, priority 2016, published 2018).
“Also recorded” adds a separate entry of the source. Like-named read-outs stand apart in the source and are kept apart here.

Experiments:
MCF-7 = assay: MTT cell proliferation assay, MCF-7; type: cell-based; conditions: Homo sapiens, MCF7
Protocol: Cells were grown at 37° C. in a 5% CO2 incubator. […] MTT was then added (5 mg/ml), and after 2 h of incubation, the plates were centrifuged. The supernatant was removed; DMSO was added, and the absorbance was read at 540 nm with a BioTek 96-well plate reader.

MCF-7 cells [1] = assay: Cellular ATP by luminescent assay; type: cell-based, human; conditions: 6 hours of treatment; metformin 5 mM
Protocol: Cells were seeded in 96-well tissue culture plate in 100 μL medium per well. After treatment with either vehicle or testing compound for an appropriate length of time, 50 μL mammalian cell lysis solution was added to each well and the plate was shaken for 5 minutes on an orbital shaker. To each well, 50 μL luminescent substrate and luciferase solution were then added. After incubation in the dark for 10 minutes, the luminescence measured. Cellular ATP levels were then calculated against a standard curve generated with ATP standards of known concentration.

MCF-7 cells [2] = assay: Western blot of signaling proteins, MCF-7; type: cell-based, human
Protocol: (§1) RIPA extracts of cells were prepared as described previously, in the presence of protease inhibitors and phosphatase inhibitors. Protein concentrations were determined by the micro-bicinchoninic acid (BCA) method, and 30 μg of protein was used for each lane of the SDS-polyacrylamide gel Western blot. Relative protein expression was estimated using GAPDH or β-actin as an internal standard.

CYP2J2 [3] = target: T1, CYP2J2 (Homo sapiens, UniProt P51589); assay: Binding to CYP nanodiscs (CYP2J2)
T1 sequence (P51589 1-502): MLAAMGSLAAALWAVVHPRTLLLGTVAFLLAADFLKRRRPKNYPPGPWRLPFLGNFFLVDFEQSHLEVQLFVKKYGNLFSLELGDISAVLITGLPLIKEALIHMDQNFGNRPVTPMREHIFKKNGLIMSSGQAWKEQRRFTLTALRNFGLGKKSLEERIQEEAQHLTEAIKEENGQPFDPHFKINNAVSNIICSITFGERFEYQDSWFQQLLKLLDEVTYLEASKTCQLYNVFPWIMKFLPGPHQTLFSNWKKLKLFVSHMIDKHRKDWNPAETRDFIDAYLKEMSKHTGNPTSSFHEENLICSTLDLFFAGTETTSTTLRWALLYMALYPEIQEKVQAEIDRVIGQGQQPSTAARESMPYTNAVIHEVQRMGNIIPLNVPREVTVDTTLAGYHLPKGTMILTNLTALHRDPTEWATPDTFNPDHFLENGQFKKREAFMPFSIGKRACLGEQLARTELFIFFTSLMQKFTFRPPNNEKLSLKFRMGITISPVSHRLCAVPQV

MCF-7 cells [4] = assay: Cellular EET levels by LC-ESI/MS/MS; type: cell-based, human; conditions: metformin 5 mM, 6 hours
Protocol: Samples were submitted to liquid chromatography-electrospray ionization/multiple reaction monitoring/mass spectrometry (LC-ESI/MRM/MS) analysis in a Thermo Electron Quantum Discovery Max triple quadrupole mass spectrometer (Thermo Finnigan, San Jose, Calif.) coupled with an Agilent 1100 HPLC (Santa Clara, Calif.), using argon as the collision gas. Negative ion monitoring was performed at the following diagnostic product ions: 319 m/z→155 m/z for 8,9-EET; 319 m/z→179 m/z for 11,12-EET; 319 m/z→219 m/z for 14,15-EET; 339 m/z→163 m/z for 8,9-[13C20]EET; 339 m/z→233 m/z for 11,12-[13C20]EET; and 339 m/z→259 m/z for 14,15-[^13C20]EET. Base-line resolution of EET regioisomers was achieved on a Phenomenex Luna C18 (2) reverse phase capillary column (250×0.5 mm, 5-μm particles) using the following mobile phase combinations: isocratic 5% B for 5 min, gradient 5-70% B for 5 min, hold at 70% for 30 min and then 95% for 10 min; A: 0.01% acetic acid in water, B: 0.01% acetic acid in acetonitrile; […] flow rate. A standard curve was obtained by linear regression of the peak area ratio of authentic EET regioisomers against internal standards. The amount of EETs in samples was calculated according to the standard curve. The (±)-5,6-EET regioisomer was not measured because it undergoes rapid internal degradation. […]

CYP2J2 [5] = target: T1, CYP2J2; assay: CYP2J2 epoxygenase activity; conditions: 0.75, 1.5 or 3 mM
MCF-7 cells [6] = assay: Clonogenicity of MCF-7 cells; type: cell-based, human; conditions: 1 mM, 24 hours treatment, 2 weeks culture
Protocol: FIG. 9A. […] After 24 hours of culture, the medium was then removed followed by addition of CM to the plates (left panel). The plates were then cultured for 2 weeks and at the endpoint the cell colonies were stained with crystal violet and the colonies counted. […] FIG. 9B.

CYP2C8 = target: T2, CYP2C8 (Homo sapiens, UniProt P10632); assay: Binding to CYP nanodiscs (CYP2C8)
T2 sequence (P10632 1-490): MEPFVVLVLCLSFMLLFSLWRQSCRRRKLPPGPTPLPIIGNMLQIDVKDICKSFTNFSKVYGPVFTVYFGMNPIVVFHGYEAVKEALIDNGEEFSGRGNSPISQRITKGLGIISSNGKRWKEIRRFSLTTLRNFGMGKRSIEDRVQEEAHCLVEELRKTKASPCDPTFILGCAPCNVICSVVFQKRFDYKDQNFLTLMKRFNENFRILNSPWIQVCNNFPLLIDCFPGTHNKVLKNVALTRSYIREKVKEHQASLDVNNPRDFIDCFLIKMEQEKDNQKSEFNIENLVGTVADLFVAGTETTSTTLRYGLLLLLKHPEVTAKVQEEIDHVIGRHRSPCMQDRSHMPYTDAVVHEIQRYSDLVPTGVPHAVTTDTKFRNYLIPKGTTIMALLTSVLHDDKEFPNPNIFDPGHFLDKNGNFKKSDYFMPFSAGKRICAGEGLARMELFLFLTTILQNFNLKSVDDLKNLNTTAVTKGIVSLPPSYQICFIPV

MCF-7 cells [7] = assay: Measurement of OCR and ECAR (extracellular flux), MCF-7; type: cell-based, human; conditions: t-AUCB 2.5, 5 μM, metformin 2.5, 5 mM, HBB 20, 40 μM, rotenone 1 μM
Protocol: Cells were maintained in growth medium consisting of 10% FBS at 37° C. with 5% CO2 and seeded at 100,000 cells per well in XF24-well cell culture microplates (Seahorse Bioscience, North Billirica, Mass.). Concentrated stocks of HBB were prepared in DMSO. HBB was diluted to 10× working concentration in XF assay medium (a non-buffered medium including 2 mM L-glutamine but no sodium bicarbonate (buffering agent), glucose, or sodium pyruvate). Assays were performed in the XF Extracellular Flux Analyzer (Seahorse Bioscience that measures uptake and excretion of metabolic end products in real time). Oxygen consumption rate (OCR) and extracellular acidification rate (ECAR) were measured using an XF Assay Kit. OCR is reported in pmoles/minute and ECAR in mpH/minute. Before analysis, the cells were switched from culture medium to XF assay medium. After baseline measurements, 75 μl of HBB prepared in assay medium was injected into each well to reach final working concentrations. After addition of HBB, OCR and ECAR were measured at 18-minute intervals. […] There were 6 replicates for the studies of the 3-18 and 4-14 cell lines.

[8] = tested on: cytochrome P450 reductase (CPR); assay: CPR-mediated reduction of cytochrome c; type: biochemical; conditions: 1 and 10 mM
Protocol: In a quartz cuvette, reduction of cytochrome c reaction was initiated by addition of CPR (final concentration 0.2 mg/mL) to 1 mL potassium phosphate buffer (0.3 M, pH=8.3) containing cytochrome c ([…]) and NADPH 50 ([…]). Absorbance at 550 nm was monitored real time by a Cary 50 UV-Vis Spectrophotometer (Agilent, Santa Clara, Calif.).

MCF-7 xenograft = conditions: 100-fold higher dosing than HBB (Ma et al.); cited from earlier work
MCF-7 cells [9] = assay: RPPA analysis of MCF-7 cells treated with (±)-14,15-EET; type: cell-based, human; conditions: 15 minutes
Text: It is proposed that HBB inhibition of ER+ tumor growth is due, in part, to direct inhibition of membrane associated non-mitochondrial CYP3A4, thereby suppressing Stat3 and mTOR signaling due to suppression of EET biosynthesis, resulting in AMPK activation (FIG. 6d, membrane diagram). […] In this model, EETs inhibit AMPK through unknown mechanisms. […] This model therefore proposes two sites of CYP3A4 activity, at cellular membranes and at mitochondria.

MCF-7 cells [10] = assay: JC-1 mitochondrial membrane potential staining, MCF-7; type: cell-based, human; conditions: HBB 20 μM 4 hours, (±)-14,15-EET 1 μM
Protocol: (§2) Cells were grown in chamber slides at 37° C. with 5% CO2 and treated with DMSO or HBB for 4 hours before JC-1 dye was added for the MCF-7 or MDA-MB-231 cell line. […] Images of red fluorescence (590 nm) and green fluorescence (530 nm) were acquired using an Olympus 1X70 microscope fitted with an Olympus DP70 digital camera (Olympus, Tokyo, Japan).

MDA-MB-231 cell line = assay: Western blot of AMPK phosphorylation, MDA-MB-231; type: cell-based, human; conditions: 1.0 μM, 24 hours
Protocol: as §1

MDA-MB-231 cells = assay: JC-1 mitochondrial membrane potential staining, MDA-MB-231; type: cell-based, human; conditions: HBB 20 μM 4 hours, (±)-14,15-EET 1 μM
Protocol: as §2

[11] = read-out: IC50, MCF-7 breast cancer cell line

**Q.** For `N=C(N)/N=C(\N)NCCc1ccccc1` [phenformin, reference compound], which IC50 (MCF-7; read-out: IC50 MCF-7) is on record?
**A.** 7000 µM

**Q.** Which “total cellular ATP levels” value (MCF-7 cells [1]) does the source give for `CN(C)C(=N)N=C(N)N` [metformin] here?
**A.** unchanged; also recorded: failed to deplete cellular ATP

**Q.** And the CYP3A4 protein levels (MCF-7 cells [2]; 1 mM, 48 hours)?
**A.** did not affect; also recorded: did not change CYP3A4 protein levels

**Q.** What about the “onset of AMPK activation (phosphorylation)” value (MCF-7 cells [2]; HBB 20 μM, metformin 5 mM) of the same molecule?
**A.** first detectable after 6 hours

**Q.** What about the “binding to CYP2J2” value (CYP2J2 [3]) of the same molecule?
**A.** binds

**Q.** What about the IC50 (MCF-7; read-out: IC50 MCF-7) of the same molecule?
**A.** 5000 µM

**Q.** And the “cellular EET levels” value (MCF-7 cells [4])?
**A.** reduced

**Q.** What about the “inhibition of CYP2J2 epoxygenase activity” value (CYP2J2 [5]) of the same molecule?
**A.** not inhibited

**Q.** And the clonogenicity (MCF-7 cells [6])?
**A.** Inhibits Clonogenicity

**Q.** And the “binding to CYP2C8” value (CYP2C8)?
**A.** binds

**Q.** And the “extracellular acidification rate (ECAR)” value (MCF-7 cells [7])?
**A.** marginal

**Q.** And the “oxygen consumption rate (OCR)” value (MCF-7 cells [7])?
**A.** marginal reduction of OCR

**Q.** And the “CPR-mediated reduction of cytochrome c” value [8]?
**A.** not affected

**Q.** And the “CPR-mediated reduction of cytochrome c” value ([8]; listed as Metformin)?
**A.** failed to inhibit

**Q.** What about the “activity on the MCF-7 xenograft” value (MCF-7 xenograft) of the same molecule?
**A.** little activity

**Q.** For `CCCCCCNC(=N)NC(=N)NCc1ncc[nH]1` [HIB, N1-hexyl-N5-[(1H-imidazol-2-yl)methyl]-biguanide], which IC50 (MCF-7; [11]) is on record?
**A.** ~500 µM

**Q.** What about the IC50 (MCF-7; read-out: IC50 MCF-7) of the same molecule?
**A.** 500 µM

**Q.** With `CCCCNC(=N)N=C(N)N` [buformin, reference compound] as the molecule, how does the IC50 (MCF-7; read-out: IC50 MCF-7) read?
**A.** > 10000 µM

**Q.** Which “extracellular acidification rate (ECAR)” value (MCF-7 cells [7]) does the source give for `C=C(C)[C@H]1Cc2c(ccc3c2O[C@@H]2COc4cc(OC)c(OC)cc4[C@@H]2C3=O)O1` [rotenone] here?
**A.** Reduction of OCR and ECAR was highly significant

**Q.** And the “oxygen consumption rate (OCR)” value (MCF-7 cells [7])?
**A.** Reduction of OCR and ECAR was highly significant

**Q.** With `CCCCCC1OC1C/C=C\C/C=C\C/C=C\CCCC(=O)O` (racemic) [(±)-14,15-EET, (±)-14,15-(5Z,8Z,11Z)-EET] as the molecule, how does the “AMPK phosphorylation (pAMPK)” value (MCF-7 cells [2]; 1 μM, 24 hours, MCF-7) read?
**A.** suppression of pAMPKc

**Q.** What about the “Stat3 phosphorylation on Y705 and S727” value (MCF-7 cells [9]) of the same molecule?
**A.** activated

**Q.** What about the “total mTOR level” value (MCF-7 cells [9]) of the same molecule?
**A.** increased

**Q.** And the “mitochondrial membrane potential (ΔΨm), JC-1” value (MCF-7 cells [10])?
**A.** increased mitochondrial cross membrane potential

**Q.** What about the AMPK phosphorylation (MDA-MB-231 cell line) of the same molecule?
**A.** no effect on AMPK phosphorylation

**Q.** What about the “mitochondrial membrane potential (ΔΨm), JC-1” value (MDA-MB-231 cells) of the same molecule?
**A.** increased mitochondrial membrane potential

**Q.** Which IC50 (MCF-7; [11]) does the source give for `CCCCCCNC(=N)NC(=N)NCc1ccncc1` [HPB, N1-hexyl-N5-(pyridin-4-ylmethyl) biguanide] here?
**A.** 40 µM

**Q.** What about the IC50 (MCF-7; read-out: IC50 MCF-7) of the same molecule?
**A.** 40 µM
